{"source": "ChEMBL document CHEMBL5634151", "about": "“Anti-adipogenic action of a novel oxazole derivative through activation of AMPK pathway” (Eur J Med Chem, 2023)", "key": {"3T3-L1 [1]": {"test_system": "3T3-L1", "assay": "Activation of AMPK pathway in MDI-cocktail differentiated mouse 3T3-L1 pre-adipocyte cells assessed as reversal of 6-(4-(2-(piperidin-1-yl)ethoxy)phenyl)-3-(pyridin-4yl)pyrazolo[1,5-a]pyrimidine induced AMPK inhibition at 5 uM incubated for 72 hrs by immunoblotting analysis", "assay_type": "cell-based", "conditions": "filed as activator"}, "3T3-L1 [2]": {"test_system": "3T3-L1", "assay": "Inhibition of MDI-cocktail induced adipogenic differentiation in mouse 3T3-L1 pre-adipocyte cells assessed as reduction in FASN protein expression at 0.5 to 5 uM by Western blot analysis", "assay_type": "functional, cell-based", "conditions": "dose 0.5-5 µM"}, "3T3-L1 [3]": {"test_system": "3T3-L1", "assay": "Upregulation of CI-NDUFB8 protein expression in mouse 3T3-L1 mature adipocytes at 1 to 5 uM incubated for 24 hrs by Western blot analysis", "assay_type": "functional, cell-based", "conditions": "dose 1-5 µM"}, "3T3-L1 [4]": {"test_system": "3T3-L1", "assay": "Anti-adipogenic activity in MDI-cocktail differentiated mouse 3T3-L1 pre-adipocyte cells assessed as reduction in FABP4 protein expression at 5 uM measured for 3 to 7 days by immunoblotting analysis", "assay_type": "functional, cell-based", "conditions": "time 3-7 day"}, "3T3-L1 [5]": {"test_system": "3T3-L1", "assay": "Induction of mitochondrial respiration in MDI-cocktail differentiated mouse 3T3-L1 pre-adipocyte cells assessed as increase in oxygen consumption rate at 5 uM incubated for 72 hrs by Seahorse XFp flux analyzer", "assay_type": "functional, cell-based"}, "3T3-L1 [6]": {"test_system": "3T3-L1", "assay": "Inhibition of MDI-cocktail induced adipogenic differentiation in mouse 3T3-L1 pre-adipocyte cells assessed as reduction in PPARgamma gene expression at 5 uM by qRT-PCR analysis", "assay_type": "functional, cell-based"}, "Syrian golden hamster [7]": {"test_system": "Syrian golden hamster", "assay": "Anti-dyslipidaemic activity in high-fat diet induced Syrian golden hamster model assessed as assessed as reduction in serum total cholesterol level at 25 to 50 mg/kg, po administered for 7 days", "assay_type": "functional, organism-based", "conditions": "Mesocricetus auratus, dose 25-50 mg/kg, time 7.0 day"}, "3T3-L1 [8]": {"test_system": "3T3-L1", "assay": "Induction of maximum respiration during early phase in MDI-cocktail differentiated mouse 3T3-L1 pre-adipocyte cells 5 uM incubated for 72 hrs by Seahorse XFp flux analyzer", "assay_type": "functional, cell-based"}, "3T3-L1 [9]": {"test_system": "3T3-L1", "assay": "Upregulation of CIV-MTCO1 protein expression in mouse 3T3-L1 mature adipocytes at 1 to 5 uM incubated for 24 hrs by Western blot analysis", "assay_type": "functional, cell-based", "conditions": "dose 1-5 µM"}, "3T3-L1 [10]": {"test_system": "3T3-L1", "assay": "Cytotoxicity against mouse 3T3-L1 pre-adipocyte cells assessed as reduction in cell viability at 20 uM incubated for 48 hrs by MTT assay", "assay_type": "toxicity, cell-based", "conditions": "3t3-l1, 48 h"}, "Syrian golden hamster [11]": {"test_system": "Syrian golden hamster", "assay": "Hepatoprotective activity in high-fat diet induced Syrian golden hamster model assessed as reduction in serum ALT level at 25 to 50 mg/kg, po administered for 7 days", "assay_type": "functional, organism-based", "conditions": "Mesocricetus auratus, dose 25-50 mg/kg, time 7.0 day"}, "3T3-L1 [12]": {"test_system": "3T3-L1", "assay": "Upregulation of CV-ATP5A protein expression in mouse 3T3-L1 mature adipocytes at 1 to 5 uM incubated for 24 hrs by Western blot analysis", "assay_type": "functional, cell-based", "conditions": "dose 1-5 µM"}, "Syrian golden hamster [13]": {"test_system": "Syrian golden hamster", "assay": "Hepatoprotective activity in high-fat diet induced Syrian golden hamster model assessed as reduction in serum AST level at 25 to 50 mg/kg, po administered for 7 days", "assay_type": "functional, organism-based", "conditions": "Mesocricetus auratus, dose 25-50 mg/kg, time 7.0 day"}, "C3H 10T1/2 [14]": {"test_system": "C3H 10T1/2", "assay": "Inhibition of MDI-cocktail induced adipogenic differentiation in mouse C3H 10T1/2 cells assessed as inhibition of lipid accumulation by Oil Red O staining based microscopic analysis", "assay_type": "functional, cell-based", "conditions": "dose 0.5-20 µM"}, "3T3-L1 [15]": {"test_system": "3T3-L1", "assay": "Induction of cell cycle arrest in MDI-cocktail differentiated mouse 3T3-L1 pre-adipocyte cells assessed as accumulation of cells at G1 phase at 3 to 5 uM incubated for 16 hrs by propidium iodide staining based flow cytometry analysis", "assay_type": "functional", "conditions": "dose 3-5 µM"}, "3T3-L1 [16]": {"test_system": "3T3-L1", "assay": "Inhibition of MDI-cocktail induced adipogenic differentiation in mouse 3T3-L1 pre-adipocyte cells assessed as increase in AMPK phosphorylation at Thr172 residue by Western blot analysis", "assay_type": "functional, cell-based", "conditions": "dose 0.5-5 µM"}, "3T3-L1 [17]": {"test_system": "3T3-L1", "assay": "Cytotoxicity against mouse 3T3-L1 pre-adipocyte cells assessed as reduction in cell viability 100 uM incubated for 48 hrs by MTT assay", "assay_type": "toxicity, cell-based", "conditions": "3t3-l1, 48 h"}, "Syrian golden hamster [18]": {"test_system": "Syrian golden hamster", "assay": "Anti-obesity activity in high-fat diet induced Syrian golden hamster model assessed as reduction in adipose hypertrophy at 50 mg/kg, po administered for 7 days by H and E staining based inverted microscopic analysis", "assay_type": "functional, organism-based", "conditions": "Mesocricetus auratus, time 7.0 day"}, "3T3-L1 [19]": {"test_system": "3T3-L1", "assay": "Anti-adipogenic activity in MDI-cocktail differentiated mouse 3T3-L1 pre-adipocyte cells assessed as inhibition of adipogenesis at 0.1 uM by Oil Red O staining based microscopic analysis", "assay_type": "functional, cell-based"}, "3T3-L1 [20]": {"test_system": "3T3-L1", "assay": "Activation of AMPK pathway in mouse 3T3-L1 mature adipocyte cells assessed as reversal of 6-(4-(2-(piperidin-1-yl)ethoxy)phenyl)-3-(pyridin-4yl)pyrazolo[1,5-a]pyrimidine induced AMPK inhibition at 5 uM incubated for 24 hrs by immunoblotting analysis", "assay_type": "cell-based", "conditions": "filed as activator"}, "3T3-L1 [21]": {"test_system": "3T3-L1", "assay": "Anti-adipogenic activity in MDI-cocktail differentiated mouse 3T3-L1 pre-adipocyte cells assessed as reduction in adipogenic differentiation at 5 uM measured after 5 to 7 days by Oil Red O staining based microscopic analysis", "assay_type": "functional, cell-based", "conditions": "time 5-7 day"}, "3T3-L1 [22]": {"test_system": "3T3-L1", "assay": "Cytotoxicity against mouse 3T3-L1 pre-adipocyte cells assessed as reduction in cell viability upto 50 uM incubated for 48 hrs by MTT assay", "assay_type": "toxicity, cell-based", "conditions": "3t3-l1, 48 h"}, "3T3-L1 [23]": {"test_system": "3T3-L1", "assay": "Induction of basal respiration during early phase in MDI-cocktail differentiated mouse 3T3-L1 pre-adipocyte cells 5 uM incubated for 72 hrs by Seahorse XFp flux analyzer", "assay_type": "functional, cell-based"}, "3T3-L1 [24]": {"test_system": "3T3-L1", "assay": "Upregulation of CII-SDHB protein expression in mouse 3T3-L1 mature adipocytes at 1 to 5 uM incubated for 24 hrs by Western blot analysis", "assay_type": "functional, cell-based", "conditions": "dose 1-5 µM"}, "3T3-L1 [25]": {"test_system": "3T3-L1", "assay": "Inhibition of MDI-cocktail induced AKT phosphorylation at Ser473 residue in mouse 3T3-L1 pre-adipocyte cells at 5 uM by immunoblotting analysis", "assay_type": "cell-based"}, "C3H 10T1/2 [26]": {"test_system": "C3H 10T1/2", "assay": "Anti-adipogenic activity in MDI-cocktail differentiated mouse C3H 10T1/2 cells assessed as reduction in adipogenic differentiation at 5 uM measured after 0 to 5 days by Oil Red O staining based microscopic analysis", "assay_type": "functional, cell-based", "conditions": "time 0-5 day"}, "3T3-L1 [27]": {"test_system": "3T3-L1", "assay": "Induction of mitochondrial respiration in MDI-cocktail differentiated mouse 3T3-L1 pre-adipocyte cells assessed as increase in oxygen consumption rate at 5 uM incubated for 72 hrs in presence of FCCP by Seahorse XFp flux analyzer", "assay_type": "functional, cell-based"}, "3T3-L1 [28]": {"test_system": "3T3-L1", "assay": "Anti-adipogenic activity in MDI-cocktail differentiated mouse 3T3-L1 pre-adipocyte cells assessed as reduction in adipogenic differentiation at 5 uM measured after 3 to 5 days by Oil Red O staining based microscopic analysis", "assay_type": "functional, cell-based", "conditions": "time 3-5 day"}, "3T3-L1 [29]": {"test_system": "3T3-L1", "assay": "Induction of cell cycle arrest in MDI-cocktail differentiated mouse 3T3-L1 pre-adipocyte cells assessed as reduction in cyclin D1 protein expression at 5 uM measured after 16 to 24 hrs by immunoblotting analysis", "assay_type": "functional, cell-based", "conditions": "time 16-24 hrs"}, "3T3-L1 [30]": {"test_system": "3T3-L1", "assay": "Inhibition of MDI-cocktail induced mTOR phosphorylation at Ser2448 residue in mouse 3T3-L1 pre-adipocyte cells at 5 uM by immunoblotting analysis", "assay_type": "cell-based"}, "Syrian golden hamster [31]": {"test_system": "Syrian golden hamster", "assay": "Anti-obesity activity in high-fat diet induced Syrian golden hamster model assessed as reduction in lean mass at 50 mg/kg, po administered for 7 days by 1H NMR spectroscopy-based Echo MRI system", "assay_type": "functional, organism-based", "conditions": "Mesocricetus auratus, time 7.0 day"}, "3T3-L1 [32]": {"test_system": "3T3-L1", "assay": "Inhibition of MDI-cocktail induced adipogenic differentiation in mouse 3T3-L1 pre-adipocyte cells assessed as increase in ACC phosphorylation at Ser79 residue by Western blot analysis", "assay_type": "functional, cell-based", "conditions": "dose 0.5-5 µM"}, "3T3-L1 [33]": {"test_system": "3T3-L1", "assay": "Induction of cell cycle arrest in MDI-cocktail differentiated mouse 3T3-L1 pre-adipocyte cells assessed as reduction in CDK2 protein expression at 5 uM measured after 16 to 24 hrs by immunoblotting analysis", "assay_type": "functional, cell-based", "conditions": "time 16-24 hrs"}}, "note": "The source made the active and inactive calls. No cut-off for these calls is given here."}
{"smiles": "Cc1ccc(-c2cnc(-c3ccc[n+](Cc4cccc(C)c4)c3)o2)cc1.[Br-]", "values": [{"measurement": "Activity", "setting": "3T3-L1 [1]", "result": "Active"}, {"measurement": "inhibition", "setting": "3T3-L1 [2]", "result": "Active"}, {"measurement": "Activity", "setting": "3T3-L1 [3]", "result": "Active"}, {"measurement": "Activity", "setting": "3T3-L1 [4]", "result": "Active"}, {"measurement": "Activity", "setting": "3T3-L1 [5]", "result": "Active"}, {"measurement": "inhibition", "setting": "3T3-L1 [6]", "result": "Active"}, {"measurement": "Activity", "setting": "Syrian golden hamster [7]", "result": "Active"}, {"measurement": "Activity", "setting": "3T3-L1 [8]", "result": "Active"}, {"measurement": "Activity", "setting": "3T3-L1 [9]", "result": "Active"}, {"measurement": "Activity", "setting": "3T3-L1 [10]", "result": "Non-Toxic"}, {"measurement": "Activity", "setting": "Syrian golden hamster [11]", "result": "Active"}, {"measurement": "Activity", "setting": "3T3-L1 [12]", "result": "Active"}, {"measurement": "Activity", "setting": "Syrian golden hamster [13]", "result": "Active"}, {"measurement": "inhibition", "setting": "C3H 10T1/2 [14]", "result": "Active"}, {"measurement": "Activity", "setting": "3T3-L1 [15]", "result": "Active"}, {"measurement": "inhibition", "setting": "3T3-L1 [16]", "result": "Dose-Dependent Effect"}, {"measurement": "Activity", "setting": "3T3-L1 [17]", "result": "Toxic"}, {"measurement": "Activity", "setting": "Syrian golden hamster [18]", "result": "Active"}, {"measurement": "Activity", "setting": "3T3-L1 [19]", "result": "Active"}, {"measurement": "Activity", "setting": "3T3-L1 [20]", "result": "Active"}, {"measurement": "Activity", "setting": "3T3-L1 [21]", "result": "Active"}, {"measurement": "Activity", "setting": "3T3-L1 [22]", "result": "Non-Toxic"}, {"measurement": "Activity", "setting": "3T3-L1 [23]", "result": "Active"}, {"measurement": "Activity", "setting": "3T3-L1 [24]", "result": "Active"}, {"measurement": "inhibition", "setting": "3T3-L1 [25]", "result": "Active"}, {"measurement": "Activity", "setting": "C3H 10T1/2 [26]", "result": "Active"}, {"measurement": "Activity", "setting": "3T3-L1 [27]", "result": "Active"}, {"measurement": "Activity", "setting": "3T3-L1 [28]", "result": "Active"}, {"measurement": "Activity", "setting": "3T3-L1 [29]", "result": "Active"}, {"measurement": "inhibition", "setting": "3T3-L1 [30]", "result": "Active"}, {"measurement": "Activity", "setting": "Syrian golden hamster [31]", "result": "Active"}, {"measurement": "inhibition", "setting": "3T3-L1 [32]", "result": "Dose-Dependent Effect"}, {"measurement": "Activity", "setting": "3T3-L1 [33]", "result": "Active"}]}
